# Results taken from patent publication US20060069132A1, “Azolecarboxamide herbicides” (priority 2004, published 2006).
# How the values were obtained:
# [1] = tested on: rice; assay: Test B pre-/postemergence herbicide test; format: in vivo, Oryza sativa; settings: 0 = no effect, 100 = complete control, preemergence
# How it was run: (§1)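 Species tested were Echinochloa crus-galli, Ipomoea coccinea, Xanthium strumarium and Oryza sativa, treated both before emergence and at the 1- to 4-leaf stage; rice and barnyardgrass were also tested under flooding at 2 leaves. Greenhouse incubation lasted 13–15 days before visual 0–100 scoring.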
# [2] = tested on: rice; assay: Test C flooded paddy test; format: in vivo, Oryza sativa
# How it was run: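 Plants were grown to the 1- to 4-leaf stage (2–18 cm) and then treated postemergence, or grown to the 2-leaf stage for the flooded paddy test. They were held in a greenhouse for 12 to 14 days and then scored by eye against controls, where 0 is no effect and 100 is complete control.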
# [3] = tested on: lambsquarters; assay: Test B pre-/postemergence herbicide test; format: in vivo, Chenopodium album; settings: for Lambsquarters plant response rating: postemergence
# How it was run: (§2)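 Greenhouse pot assay with simultaneous preemergence (treated seed) and postemergence (2–18 cm seedlings) applications of surfactant-containing, non-phytotoxic solvent formulations. Response scored visually 13–15 days later on a 0–100 scale, 100 meaning complete control.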
# [4] = tested on: blackgrass; assay: Test B postemergence herbicide test; format: in vivo, Alopecurus myosuroides; settings: postemergence, visual rating, scale 0 (no effect) to 100 (complete control)
# How it was run: (§3)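 Plants grow to 1- to 4-leaf stage (2–18 cm) for postemergence spraying, or to 2-leaf stage for the paddy test. Formulated compound is applied. Greenhouse holding lasts 13–15 days. Response is scored visually relative to controls, 0 no effect to 100 complete control; a dash means no result.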
# [5] = tested on: corn; assay: Test B pre-/postemergence herbicide test; format: in vivo, Zea mays; settings: for Corn plant response rating: postemergence
# How it was run: as §2
# [6] = tested on: rice; assay: Test B flooded paddy test; format: in vivo, Oryza sativa; settings: 1000 g ai/ha, scale 0 to 100 (0 no effect, 100 complete control)
# How it was run: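 Greenhouse test; postemergence application to plants at 1–4 leaves (2–18 cm); paddy species at 2 leaves; evaluated visually vs controls at 13–15 days; scale 0–100 (100 = complete control).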
# [7] = tested on: Surinam grass; assay: Test B pre-/postemergence herbicide test; format: in vivo, Urochloa decumbens; settings: for Surinam Grass plant response rating: postemergence
# How it was run: as §2
# [8] = tested on: small flower umbrella sedge; assay: Test B flooded paddy test; format: in vivo, Cyperus difformis; settings: 1000 g ai/ha, scale 0 to 100 (0 no effect, 100 complete control)
# How it was run: as §3
# [9] = tested on: barnyardgrass; assay: Test B pre-/postemergence herbicide test; format: in vivo, Echinochloa crus-galli; settings: for Barnyardgrass plant response rating: postemergence, scale 0 (no effect) to 100 (complete control)
# How it was run: as §1
# [10] = tested on: giant foxtail; assay: Test B pre-/postemergence herbicide test; format: in vivo, Setaria faberi; settings: for Foxtail, Giant plant response rating: postemergence
# How it was run: as §2
# [11] = tested on: barnyardgrass; assay: Test B flooded paddy test; format: in vivo, Echinochloa crus-galli; settings: 1000 g ai/ha, scale 0 to 100 (0 no effect, 100 complete control)
# How it was run: as §3
# [12] = tested on: smallflower umbrella sedge; assay: Test C flooded paddy test; format: in vivo, Cyperus difformis
# [13] = tested on: large crabgrass; assay: Test B pre-/postemergence herbicide test; format: in vivo, Digitaria sanguinalis; settings: for Crabgrass, Large plant response rating: postemergence
# How it was run: as §2
# [14] = tested on: morningglory; assay: Test B pre-/postemergence herbicide test; format: in vivo, Ipomoea coccinea; settings: for Morningglory plant response rating: postemergence
# How it was run: as §1
# [15] = tested on: wild oat; assay: Test B postemergence herbicide test; format: in vivo, Avena fatua; settings: postemergence
# How it was run: as §3
# [16] = tested on: velvetleaf; assay: Test B pre-/postemergence herbicide test; format: in vivo, Abutilon theophrasti; settings: for Velvetleaf plant response rating: postemergence
# How it was run: as §2
# [17] = tested on: cocklebur; assay: Test B pre-/postemergence herbicide test; format: in vivo, Xanthium strumarium; settings: for Cocklebur plant response rating: postemergence, scale 0 (no effect) to 100 (complete control)
# How it was run: as §1
# [18] = tested on: pigweed; assay: Test B pre-/postemergence herbicide test; format: in vivo, Amaranthus retroflexus; settings: for Pigweed plant response rating: postemergence
# How it was run: as §2
# [19] = tested on: barnyardgrass; assay: Test C flooded paddy test; format: in vivo, Echinochloa crus-galli
# How it was run: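 Visual rating, 0 (no effect) to 100 (complete control), vs. controls at 12–14 d in greenhouse. Postemergence: 1–4-leaf plants, 2–18 cm. Paddy: flooded, barnyardgrass at 2-leaf stage.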
# [20] = tested on: ducksalad; assay: Test C flooded paddy test; format: in vivo, Heteranthera limosa
# [21] = tested on: wheat; assay: Test B postemergence herbicide test; format: in vivo, Triticum aestivum; set-up: key to Wheat plant response rating: 0 = no effect, 100 = complete control; settings: postemergence
# How it was run: as §3
# [22] = tested on: ducksalad; assay: Test B flooded paddy test; format: in vivo, Heteranthera limosa; settings: 1000 g ai/ha, scale 0 to 100 (0 no effect, 100 complete control)
# How it was run: as §3
# [23] = 62 g ai/ha, scale 0 to 100 (0 no effect, 100 complete control)
# [24] = 125 g ai/ha, scale 0 to 100 (0 no effect, 100 complete control)
# [25] = 250 g ai/ha, scale of 0 to 100, 0 is no effect, 100 is complete control
# [26] = 500 g ai/ha, visual rating after 12 to 14 days, scale 0 to 100 (0 no effect, 100 complete control)
# [27] = 125 g ai/ha, 0 = no effect, 100 = complete control, preemergence
# [28] = 500 g ai/ha, visual rating, 0 = no effect, 100 = complete control, preemergence
# [29] = 125 g ai/ha, visual rating, scale 0 (no effect) to 100 (complete control)
# [30] = 500 g ai/ha, scale 0 to 100, 0 is no effect, 100 is complete control
compound,measurement,setting,value
CCn1nc(C(C)(C)C)cc1C(=O)Nc1cc(C(=O)N2CCOCC2)ccc1F [Compound 243],Rice plant response rating (0 to 100 scale),[1]; 125 g ai/ha,20
same,"Plant response rating, Rice","[1]; 500 g ai/ha, visual rating",80
same,Rice plant response rating,[2]; [23],15
same,Rice plant response rating,[2]; [24],75
same,Rice plant response rating,[2]; [25],80
same,"Plant response rating, Rice",[2]; [26],90
same,Lambsquarters plant response rating (0 to 100 scale),[3]; [27],90
same,"Plant response rating, Lambsquarters",[3]; [28],100
same,Lambsquarters plant response rating,[3]; [29],70
same,Lambsquarters plant response rating,[3]; [30],80
same,Blackgrass plant response rating,[4]; 125 g ai/ha,0
same,Blackgrass plant response rating,[4]; 500 g ai/ha,0
same,Corn plant response rating (0 to 100 scale),[5]; [27],20
same,"Plant response rating, Corn",[5]; [28],50
same,Corn plant response rating,[5]; [29],10
same,Corn plant response rating,[5]; [30],10
same,Rice plant response rating,[6],90
same,Surinam Grass plant response rating (0 to 100 scale),[7]; [27],60
same,"Plant response rating, Surinam Grass",[7]; [28],80
same,Surinam Grass plant response rating,[7]; [29],10
same,Surinam Grass plant response rating,[7]; [30],20
same,"Sedge, Umbrella plant response rating",[8],80
same,Barnyardgrass plant response rating (0 to 100 scale),[9]; [27],70
same,"Plant response rating, Barnyardgrass",[9]; [28],90
same,Barnyardgrass plant response rating,"[9]; 125 g ai/ha, visual rating",10
same,Barnyardgrass plant response rating,"[9]; 500 g ai/ha, visual rating",20
same,"Foxtail, Giant plant response rating (0 to 100 scale)",[10]; [27],50
same,"Plant response rating, Foxtail, Giant",[10]; [28],80
same,"Foxtail, Giant plant response rating",[10]; [29],10
same,"Foxtail, Giant plant response rating",[10]; [30],20
same,Barnyardgrass plant response rating,[11],90
same,"Sedge, Umbrella plant response rating",[12]; [23],75
same,"Sedge, Umbrella plant response rating",[12]; [24],80
same,"Sedge, Umbrella plant response rating",[12]; [25],80
same,"Plant response rating, Sedge, Umbrella",[12]; [26],80
same,"Crabgrass, Large plant response rating (0 to 100 scale)",[13]; [27],60
same,"Plant response rating, Crabgrass, Large",[13]; [28],100
same,"Crabgrass, Large plant response rating",[13]; [29],10
same,"Crabgrass, Large plant response rating",[13]; [30],10
same,Morningglory plant response rating (0 to 100 scale),[14]; [27],0
same,"Plant response rating, Morningglory",[14]; [28],0
same,Morningglory plant response rating,[14]; [29],0
same,Morningglory plant response rating,[14]; [30],20
same,"Oat, Wild plant response rating",[15]; [29],0
same,"Oat, Wild plant response rating",[15]; [30],20
same,Velvetleaf plant response rating (0 to 100 scale),[16]; [27],40
same,"Plant response rating, Velvetleaf",[16]; [28],100
same,Velvetleaf plant response rating,[16]; [29],50
same,Velvetleaf plant response rating,[16]; [30],60
same,Cocklebur plant response rating (0 to 100 scale),[17]; [27],0
same,"Plant response rating, Cocklebur",[17]; [28],20
same,Cocklebur plant response rating,"[17]; 125 g ai/ha, visual rating",10
same,Cocklebur plant response rating,"[17]; 500 g ai/ha, visual rating",30
same,Pigweed plant response rating (0 to 100 scale),[18]; [27],60
same,"Plant response rating, Pigweed",[18]; [28],100
same,Pigweed plant response rating,[18]; [29],20
same,Pigweed plant response rating,[18]; [30],60
same,Barnyardgrass plant response rating,[19]; [23],0
same,Barnyardgrass plant response rating,[19]; [24],65
same,Barnyardgrass plant response rating,[19]; [25],75
same,"Plant response rating, Barnyardgrass",[19]; [26],85
same,Ducksalad plant response rating,[20]; [23],75
same,Ducksalad plant response rating,[20]; [24],85
same,Ducksalad plant response rating,[20]; [25],90
same,"Plant response rating, Ducksalad",[20]; [26],90
same,Wheat plant response rating,[21]; [29],0
same,Wheat plant response rating,[21]; [30],0
same,Ducksalad plant response rating,[22],90
